According to PMC12305662, “Fragment-Based Development of Small Molecule Inhibitors Targeting Mycobacterium tuberculosis Cholesterol Metabolism” (Journal of Medicinal Chemistry, 2025):
Like-named read-outs stand apart in the source and are kept apart here.

How the values were obtained:
[1] = target: CYP125 (Mycobacterium tuberculosis, UniProt P9WPP1); format: binding; details: for CYP125 Δλmax (nm) HS: high spin population, '-' = no HS maxima present; for CYP125 Δλmax (nm) LS: low spin population, '-' = no LS maxima present
[2] = target: CYP142 (Mycobacterium tuberculosis, UniProt P9WPL5); details: compound 100 µM, P450 5 µM
[3] = compound 100 µM, P450 5 µM, ratio of low spin to high spin CYP125

Chain of CYP142 (P9WPL5 whole entry): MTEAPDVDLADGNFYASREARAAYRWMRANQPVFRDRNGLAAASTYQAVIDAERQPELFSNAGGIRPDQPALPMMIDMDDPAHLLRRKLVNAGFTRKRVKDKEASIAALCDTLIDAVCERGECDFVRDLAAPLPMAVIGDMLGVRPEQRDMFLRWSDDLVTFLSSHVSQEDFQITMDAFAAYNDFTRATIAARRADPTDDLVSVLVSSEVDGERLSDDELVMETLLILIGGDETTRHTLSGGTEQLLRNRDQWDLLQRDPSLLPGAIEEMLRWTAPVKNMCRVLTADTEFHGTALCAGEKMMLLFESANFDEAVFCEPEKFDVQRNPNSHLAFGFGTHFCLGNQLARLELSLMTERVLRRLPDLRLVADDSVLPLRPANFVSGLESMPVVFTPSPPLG
Chain of CYP125 (P9WPP1 whole entry): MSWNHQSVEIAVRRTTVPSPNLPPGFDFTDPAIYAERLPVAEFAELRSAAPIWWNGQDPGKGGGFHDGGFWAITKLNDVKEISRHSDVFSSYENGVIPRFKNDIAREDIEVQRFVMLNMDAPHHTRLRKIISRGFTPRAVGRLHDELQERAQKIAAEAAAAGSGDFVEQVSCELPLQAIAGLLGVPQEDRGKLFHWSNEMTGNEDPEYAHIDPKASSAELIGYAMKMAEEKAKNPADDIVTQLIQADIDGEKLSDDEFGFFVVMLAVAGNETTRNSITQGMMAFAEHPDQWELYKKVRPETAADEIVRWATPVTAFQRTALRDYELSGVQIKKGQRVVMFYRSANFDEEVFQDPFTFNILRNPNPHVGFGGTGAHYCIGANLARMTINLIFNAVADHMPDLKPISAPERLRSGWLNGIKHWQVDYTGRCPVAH

Compound | CYP125 Δλmax (nm) HS ([1]; compound 100 µM, P450 5 µM) [nm] | CYP125 Δλmax (nm) LS ([1]; compound 100 µM, P450 5 µM) [nm] | CYP125 LS/HS [1, 3] | CYP142 Δλmax (nm) [2] [nm] | CYP125 LS/HS [1]
3-(Pyridin-4-ylmethyl)aniline [3d] | 3 | 29 |  |  | 
c1ccc(Oc2ccncc2)cc1 [2d, 4-Phenoxypyridine] | 1 | 25 | 1 | 2 | 
COc1ccc(Cc2ccncc2)cc1 [3b, 4-(4-Methoxybenzyl)pyridine] | 1 | 25 | 1 | 2 | 
c1ccc(CCc2ccncc2)cc1 [2h, 4-Phenethylpyridine] | 2 | 26 | 1 | 2 | 
Brc1cccc(Nc2ccncc2)c1 [4h, N-(3-Bromophenyl)pyridin-4-amine] |  | 31 | 1.4 | 4 | 
C(=C\c1ccncc1)/c1ccccc1 [2g, (E)-4-Styrylpyridine] |  | 29 | 1.4 | 3 | 
O=S(=O)(c1ccccc1)c1ccncc1 [2e, 4-(Phenylsulfonyl)pyridine] | 0 |  |  | 0 | 
OCc1cccc(Nc2ccncc2)c1 [4g] | 0 |  |  | 1 | 
O=C(O)c1ccc(Nc2ccncc2)cc1 [4f, 4-(Pyridin-4-ylamino)benzoic Acid] | 1 |  |  | 0 | 
O=C(c1ccccc1)c1ccncc1 [2f] | 0 |  |  | 0 | 
O=C(O)c1cccc(Nc2ccncc2)c1 [4e, 3-(Pyridin-4-ylamino)benzoic Acid] | 0 |  |  | 0 | 
COC(=O)c1cccc(Nc2ccncc2)c1 [4c, Methyl/Ethyl 3-(pyridin-4-ylamino)benzoate] | 1 | 27 | 1 | 3 | 
Nc1cccc(Nc2ccncc2)c1 [4a, N^1-(Pyridin-4-yl)benzene-1,3-diamine] | 1 | 22 | 0.9 | 3 | 
Nc1ccc(Nc2ccncc2)cc1 [4b, N^1-(Pyridin-4-yl)benzene-1,4-diamine] | 1 | 31 | 1.3 | 3 | 
CN(c1ccccc1)c1ccncc1 [2b, N-Methyl-N-phenylpyridin-4-amine] | 1 | 25 | 0.9 | 4 | 
COC(=O)c1ccc(Nc2ccncc2)cc1 [4d, Methyl 4-(pyridin-4-ylamino)benzoate] | 2 | 26 | 1 | 3 | 
Nc1ccc(Cc2ccncc2)cc1 [3e] | 3 | 29 |  | 3 | 1.7
Brc1ccc(Nc2ccncc2)cc1 [4i, N-(4-Bromophenyl)pyridin-4-amine] | 2 | 29 | 1.2 | 4 | 
c1ccc(N(c2ccccc2)c2ccncc2)cc1 [2c, N,N-Diphenylpyridin-4-amine] | 2 | 28 | 1 | 4 | 
COc1cccc(Cc2ccncc2)c1 [3a, 4-(3-Methoxybenzyl)pyridine] | 1 | 27 | 1.1 | 2 | 
